Source: patent US11842798B2, “Natural product and genetic data analysis and discovery system, method and computational platform therefor” (priority 2015, dated 2023)
Entries after “also recorded” stand apart in the source; their conditions may differ. Read-outs that look alike come from different tables or passages of the source. Numbered stars: 1 amine (or outer) side, 2 acyl side, 3 side chain; on linkers, the order of the positions; unused ones are H or OH. Bridge positions count the residues as written; N and C are the ends. Square brackets hold non-standard residues; d marks the D form. Peptide text beside a SMILES is read from it. X1 = O=C(/C(=C\c1c[nH]c2ccccc12)N[*:1])[*:2]; X2 = CC(c1c[nH]c2ccccc12)C(N[*:1])C(=O)[*:2]; βAsp = O=C(O)[CH](CC(=O)[*:2])N[*:1]

Experiments:
[1] = tested on: Telomycin-resistant bacteria; test: MIC by broth microdilution, telomycin-resistant strains; assay type: cell-based, S. aureus and B. subtilis; conditions: for activity against resistant strains: compared with telomycin A against sensitive strains
Procedure: (§1) FIG. 46 summarizes MICs of telomycin antibiotics (1-10). Sensitive and resistant strains were exposed to telomycins and MICs were measured by microdilution in CAMHB. MICs were determined after 16 h growth, and are shown in μg ml−1.
(§2) Minimum inhibitory concentrations (MICs) for telomycins were determined using broth microdilution in cation-adjusted Mueller Hinton broth (CAMHB). Bacillus subtilis strains were cultured at 28° C., and S. aureus strains were cultured at 37° C. […] For assessing the impact of treating strains with sodium chloride concentrations prior to telomycin, S. aureus was grown overnight in CAMHB containing 0, 0.5, 1, or 1.5 M NaCl and then MICs were recorded as described above.
To identify mutations that conferred resistance to telomycin, we isolated colonies of S. aureus Newman that appeared inside the zone of inhibition observed during telomycin disk diffusion assays. […] Genomic DNA was extracted from highly resistant isolates and their sensitive parental strain, and sequenced with an Illumina MiSeq platform. Sequences were compared using BreSeq, which exclusively identified mutations in the predominant, house-keeping cardiolipin synthase (cls2). Bacillus subtilis telomycin-resistant mutants were identified in a similar manner, and mutations in cardiolipin synthase were confirmed by sequencing PCR products of the two cardiolipin synthase genes: clsA and clsB. […] PCR primers used for the amplification of B. subtilis cardiolipin synthase genes are as follows— • clsAF: 5′-[…]-3′ (SEQ ID NO: 1); • clsAR: 5′-[…]-3′ (SEQ ID NO: 2); • clsBF: 5′-[…]-3′ (SEQ ID NO: 3); • clsBR: 5′-[…]-3′ (SEQ ID NO: 4). Structure Elucidation

Gram positive organisms = conditions: cited from earlier work
[2] = tested on: Sensitive and resistant strains; test: MICs of telomycin antibiotics (FIG. 46); assay type: cell-based
Procedure: as §1, §2

B. subtilis [3] = test: Bioactivity of telomycin-lipid mixtures on solid agar (diffusion disks); assay type: cell-based; conditions: excess cardiolipin (2× molar equivalent)
Procedure: To assess the impact of various lipids on telomycin's antibacterial activity on solid agar, 10 μL of 10 mM telomycin was mixed with 10 μL of 20 mM cardiolipin (Sigma Aldrich; C0563; ≥98% pure), phosphatidylglycerol (Sigma Aldrich; 63371; ≥98% pure), phosphatidylcholine (Sigma Aldrich; P3556; ≥99% pure), or phosphatidylethanolamine (Sigma Aldrich; P7943; ≥97% pure). All compounds were dissolved in methanol. Mixtures were incubated for 10 min, then added to diffusion disks, allowed to dry, then placed on a CAMHB agar plate with B. subtilis as an indicator organism. The plate was incubated overnight at 28° C.
(§3) (a) Mutating cardiolipin synthase provides spontaneous telomycin resistance. Wild type and spontaneously-resistant S. aureus (left) and B. subtilis (right) were exposed to 32×MIC concentrations of telomycin for 90 min. CFUs were taken before treatment (black) and after 90 min (white). Results are shown as ±s.d.; n=4; Two-tailed students t-test. P=0.0018. Data are representative of three independent experiments. […] Telomycin (final concentration 5 mM; 6.3 mg ml^−1) was mixed with CL, PG, PE, or PC at concentrations ranging from 0.125 to 5 mg ml^−1. Mixtures were incubated for 5 min before turbidity was measured using absorbance at 600 nm. […] Telomycin (0.1 mM) was exposed to lipids at concentrations ranging from 1 to 0.05 mM, then used to determine MICs against wild type B. subtilis. […]

sheep red blood cell = test: Red blood cell (RBC) hemolysis assay; assay type: cell-based; conditions: 0.25% sheep RBC, 256 to 2 μg/mL, 1 h, 37° C.
Procedure: Hemolytic activity of telomycin was measured against a 0.25% sheep red blood cell (RBC, Fisher Scientific) suspension in phosphate-buffered saline. Telomycin was serially diluted from 256 to 2 μg/mL and incubated with the RBC suspension for 1 h at 37° C. in a polypropylene 96-well plate with conical wells. After 1 h, RBCs were pelleted (1000×g for 5 min) and the supernatant was transferred to a flat-bottom polystyrene 96-well plate, measuring absorbance at 540 nm. 1% Triton X-100 was used as a positive control, while DMSO alone and RBCs alone were used as negative controls.
A solution of 0.25% sheep red blood cell suspension in phosphate buffered saline was incubated for 1 h at 37° C. with either a serial dilution of telomycin, 1% Triton X100 (positive lysis control), DMSO alone (1%; negative lysis control), or without added content (negative lysis control). After 1 h RBCs were pelleted and lysis was assessed by measuring absorbance of the supernatant at 540 nm.

[4] = Turbidity of telomycin-lipid mixtures; assay type: binding; conditions: telomycin mixed with cardiolipin, absorbance at 600 nm, other lipids as contrast
Procedure: To measure the turbidity of telomycin-lipid mixtures, telomycin was dissolved in methanol at a concentration of 12.8 mg/mL, and cardiolipin (Sigma Aldrich; C0563; 98% pure), phosphatidylglycerol (Sigma Aldrich; 63371; ≥98% pure), phosphatidylcholine (Sigma Aldrich; P3556; ≥99% pure), and phosphatidylethanolamine (Sigma Aldrich; P7943; 97% pure) were dissolved in methanol at a concentration of 10 mg/mL. 20 μL of telomycin was mixed with 20, 10, 5, 1, or 0.5 μL of each lipid (final reaction volume 40 μL) in a flat-bottom polystyrene 96-well plate. Optical density (OD=600 nm) was measured after 10 min.
as §3

[5] = in vivo, cited from earlier work
S. aureus [6] = test: Colony forming unit (CFU) lysis assay; assay type: cell-based
Procedure: (§4) Cultures of S. aureus and B. subtilis were grown overnight in CAMHB. Starter cultures were used to inoculate fresh media and were grown to OD=0.2, after which they were transferred to 96-well plates. Cultures were serially diluted and plated on CAMHB agar to determine initial colony-forming units. Telomycin dissolved in DMSO was added to each well (1:100) and incubated for 90 min, followed by serial dilution and plating to determine colony-forming units. Results are shown as ±s.d.; n=4; Two-tailed students t-test.
(§5) (a) Structure of telomycin. […] Wild type S. aureus (OD 0.2) was exposed to 8 (1×MIC) or 256 μg ml^−1 (32×MIC) telomycin. Colony-forming units (CFUs) were taken before treatment (black) and after 90 min (white). Results are shown as ±s.d.; n=4; Two-tailed students t-test. P=0.0023. Data are representative of three independent experiments.
(a) Mutating cardiolipin synthase provides spontaneous telomycin resistance. Wild type and spontaneously-resistant S. aureus (left) and B. subtilis (right) were exposed to 32×MIC concentrations of telomycin for 90 min. CFUs were taken before treatment (black) and after 90 min (white). Results are shown as ±s.d.; n=4; Two-tailed students t-test. P=0.0018. Data are representative of three independent experiments. […] Mixtures were incubated for 5 min before turbidity was measured using absorbance at 600 nm. […]

[7] = tested on: Telomycin-resistant bacteria; test: CFU lysis assay on spontaneously-resistant strains; assay type: cell-based, S. aureus and B. subtilis; conditions: 32×MIC, 90 min
Procedure: as §4
(§6) (a) Mutating cardiolipin synthase provides spontaneous telomycin resistance. Wild type and spontaneously-resistant S. aureus (left) and B. subtilis (right) were exposed to 32×MIC concentrations of telomycin for 90 min. CFUs were taken before treatment (black) and after 90 min (white). Results are shown as ±s.d.; n=4; Two-tailed students t-test. P=0.0018. Data are representative of three independent experiments. […] Telomycin (final concentration 5 mM; 6.3 mg ml^−1) was mixed with CL, PG, PE, or PC at concentrations ranging from 0.125 to 5 mg ml^−1. Mixtures were incubated for 5 min before turbidity was measured using absorbance at 600 nm. […] Telomycin (0.1 mM) was exposed to lipids at concentrations ranging from 1 to 0.05 mM, then used to determine MICs against wild type B. subtilis. […] (d) Cardiolipin abolishes telomycin's antibacterial activity. […]

B. subtilis [8] = test: Colony forming unit (CFU) lysis assay; assay type: cell-based; conditions: concentrations above the MIC
Procedure: as §4, §6

[9] = tested on: Chinese Hamster ovary (CHO) cells; conditions: previous studies; cited from earlier work
S. aureus [10] = test: MIC by broth microdilution in CAMHB; assay type: cell-based
Procedure: as §2, §5

B. subtilis [11] = test: Bioactivity of telomycin-lipid mixtures in liquid media (MIC); assay type: cell-based
Procedure: To assess the impact of various lipids on telomycin's antibacterial activity in liquid media, telomycin was dissolved in methanol at 12.8 mg/mL (approx. 10 mM) and 1 μL was added to a 96-well plate. Lipids were dissolved in methanol and 10 μL of 10, 5, 2, 1, or 0.5 mM lipid was added to each telomycin-containing well. CAMHB inoculated with B. subtilis was added to each well and serially diluted to determine the minimum inhibitory concentration of each telomycin-lipid mixture. Plates were incubated shaking at 28° C. for 16 h.
as §6

HEK293 cells = test: Cytotoxicity assay (Alamar Blue); assay type: cell-based, human; conditions: HEK293, 48 h
Procedure: HEK293 cells were obtained from the American Type Culture Collection (ATCC; ATCC CRL-1573) and maintained in Minimal Essential Media (MEM) Alpha modifications supplemented with 10% fetal bovine serum. […] Cells were cultured in 96-well plates containing 200 μL of media and 5000 cells per well. After 3 h of incubation, cells were treated with a serial dilution of telomycin A. Experiments were performed in duplicate with DMSO as a negative control and mitomycin C as a positive control. After 48 h incubation, 10% (22 μL) Alamar Blue (Life Technologies) was added and incubated with cells for 4 h at 37° C. Fluorescence was measured at an excitation wavelength of 530 nm and an emission wavelength of 590 nm and compared to a no-drug control.

## CC(C)CC1NC(=O)C(C(C)c2c[nH]c3ccccc23)NC(=O)/C(=C\c2c[nH]c3ccccc23)NC(=O)C2CCCN2C(=O)CNC(=O)C(C)NC(=O)C(C(C)O)NC(=O)C(NC(=O)C(CO)NC(=O)CC(N)C(=O)O)C(C)OC(=O)C2CCCN2C1=O (stereo not drawn) [telomycin F] (βAsp-STTAGP[X1][X2]LP; ester 2-C; configuration not given here)
[1]
  activity against resistant strains: comparable with the activity of telomycin A against sensitive strains

## LL-AO341β
Gram positive organisms
  activity relative to telomycin: improved activity
Gram positive organisms; previous observations
  cross-resistance with other antibacterial agents: does not demonstrate cross-resistance

## N-carboxyfluorescein telomycin [fluorescein-labelled telomycin conjugate]
[2]
  antimicrobial activity relative to telomycin: slight decrease

## telomycin A
B. subtilis [3]
  effect of cardiolipin on antibacterial activity of telomycin: completely abolish; also recorded: abolishes
Sheep red blood cell
  hemolysis: not hemolytic; also recorded: does not cause hemolysis
Sheep red blood cell; listed as Telomycin
  hemolysis: not hemolytic; also recorded: does not Cause Hemolysis
[4]
  turbidity / precipitation with cardiolipin: rapidly formed an opaque precipitant in a dose-dependent manner
[4]; listed as Telomycin
  turbidity / precipitation with cardiolipin: uniquely and rapidly acquire turbidity
[5]
  efficacy in animal studies: demonstrated efficacy; also recorded: demonstrated value in vivo
  toxicity in animals / mammals: without apparent toxicity
[5]; listed as Telomycin
  toxicity in animals / mammals: not known to possess significant toxicity
S. aureus [6]; concentrations above the MIC
  lysis of bacteria: rapid lysis
S. aureus [6]; wild type S. aureus OD 0.2, 256 μg ml^−1 (32×MIC), 90 min
  lysis (CFUs before and after treatment): lyses S. aureus at high concentrations
[7]
  lysis of telomycin-resistant bacteria: refractory to lysis
[1]; telomycin-resistant bacteria generated with limited passaging, versus sensitive parent
  increase in MIC: 16 fold
B. subtilis [8]
  lysis of bacteria: rapid lysis
[9]
  toxicity: not observed at concentrations up to: > 40 µg/mL
S. aureus [10]; S. aureus grown in CAMHB with 0, 0.5, 1, or 1.5 M NaCl
  telomycin activity after growth in high salinity: improved
S. aureus [10]; Wild type S. aureus
  MIC: 8 µg/mL
B. subtilis [11]; phosphatidylglycerol in 10× molar excess
  effect of phosphatidylglycerol on antibacterial activity of telomycin: some protective effect
B. subtilis [11]; telomycin 0.1 mM, lipids 1 to 0.05 mM
  effect of cardiolipin on antibacterial activity of telomycin (MIC): reduces telomycin's antibacterial activity in a dose-dependent manner
HEK293 cells
  cytotoxicity: not observed at concentrations up to: > 128 µg/mL

## di-5-methyltryptophan telomycin
[1]
  activity against resistant strains: comparable with the activity of telomycin A against sensitive strains
